Test results taken from patent US4277497A, “Analgesic 2-(M-benzoylphenoxy)-propionic acid derivatives” (Unicler, priority 1978, dated 1981).
Counter-ions that a name gives are not always drawn.

How the values were obtained:
[1] = system: carrageenin oedema; test: Carrageenin oedema test (Winter and Risley's technique), anti-inflammatory activity; format: in vivo, rats (Wistar strain, female); settings: rats, inhibition of oedema compared with control batch
Protocol: The anti-inflammatory activity was measured by the carrageenin oedema test according to Winter and Risley's technique (Proc. Soc. Exp. Biol. 111, 544, 1962). The test was carried out on batches of 10 Wistar strain female rats weighing 180 g, which receives the products in an amount of 1/10 of the LD50. The anti-inflammatory activity corresponds to the inhibition of the oedema in the treated batch compared with the control batch.

[2] = system: painful syndrome produced in mice by phenylbenzoquinone; test: Analgesic test of Siegmund, Cadmus and Lu (phenylbenzoquinone-induced painful syndrome, stretching); format: in vivo, mice (Swiss strain); settings: oral; for Analgesic activity at 1/10 of LD50: dose 1/10 of LD50, 30 minutes before phenylbenzoquinone; for Analgesic activity at 1/40 of LD50: dose 1/40 of LD50, 30 minutes before phenylbenzoquinone
Protocol: They were in particular subjected to the analgesic test of Siegmund, Cadmus and Lu (Proc. Soc. Exp. Biol. Med. 95, 729, 1957) according to which a characteristic painful syndrome is produced in mice by injecting phenylbenzoquinone.
The animals used are Swiss strain mice, weighing 20±2 grams.
The animals are distributed in random batches of 10, but are tested individually. Each test comprises at least two batches.
a control batch that receives the solvent and phenylbenzoquinone
a batch treated with the product being investigated.
The investigated products are administered orally, in an amount of 1/10 or 1/40 of the LD50, 30 minutes before the injection of the irritant agent. Each mouse then receives 0.25 ml of a 0.02% phenylbenzoquinone solution intraperitoneally.
The pain syndrome produced by the injection of phenylbenzoquinone causes the animals to stretch their stomach and rear paws, and at the crisis point of the reaction the animal's flanks are very contracted. 5 minutes after the injection of the irritant, the stretching is counted for a period of 10 minutes.
The average number of stretchings is calculated for each batch. The activity of the product under investigations is determined by comparison with the average number of stretchings in the treated animals (N) and the average number of stretchings in the control animals (N'). [formula]
The statistical significance of the result thus obtained is evaluated by Fisher's non-parametric test.

[3] = system: mice; test: Oral toxicity in mice (Miller and Tainter's method); format: in vivo
Protocol: (§1) The toxicity of the compounds according to the invention administered orally was also determined in mice by Miller and Tainter's method.

[4] = as above; format: in vivo; settings: mouse, in vivo, po, read-out: LD50 toxicity orally
Protocol: as §1

| Structure (SMILES) | Anti-inflammatory activity at 1/10 of LD50 [1] [%] | Analgesic activity at 1/10 of LD50 [2] [%] | Analgesic activity at 1/40 of LD50 [2] [%] | LD50 toxicity orally [3] [mg/kg] | LD50 [4] [mg/kg] |
| --- | --- | --- | --- | --- | --- |
| CC(Oc1cccc(C(=O)c2ccccc2)c1)C(=O)O (stereo not shown) [Lysine salt of Ex. 1] | 50 | 97 | 86 | 2000 | – |
| Cc1c(OC(C)C(=O)O)cccc1C(=O)c1ccc(Cl)cc1Cl (stereo not shown) [Example 9] | – | 64 | – | – | 750 |
| CC(Oc1cccc(C(=O)c2ccc(Br)cc2)c1)C(=O)O (stereo not shown) [Example 4] | 45 | 84 | 58 | – | 1000 |
| CC(Oc1cccc(C(=O)c2ccccc2)c1)C(=O)O (stereo not shown) [Example 1] | 17 | 86 | 84 | – | 1000 |
| CC(Oc1cccc(C(=O)c2ccc(F)cc2)c1)C(=O)O (stereo not shown) [Example 5] | 26 | 89 | 63 | – | 1500 |
| Cc1ccc(C(=O)c2cccc(OC(C)C(=O)O)c2)cc1 (stereo not shown) [Example 8] | 40 | 84 | 86 | – | 1500 |
| CC(Oc1cccc(C(=O)c2ccc(Cl)cc2Cl)c1)C(=O)O (stereo not shown) [Example 3] | 18 | 98.5 | 71 | – | 1500 |
| Cc1c(OC(C)C(=O)O)cccc1C(=O)c1ccc(Cl)cc1 (stereo not shown) [Lysine salt of Ex. 6] | 57 | 80 | 89 | 1000 | – |
| Cc1ccc(C(=O)c2ccc(Cl)cc2)cc1OC(C)C(=O)O (stereo not shown) [Example 7] | 21 | 81 | – | – | 500 |
| Cc1c(OC(C)C(=O)O)cccc1C(=O)c1ccccc1 (stereo not shown) [Example 2] | 33 | 73 | – | – | 750 |
| Cc1c(OC(C)C(=O)O)cccc1C(=O)c1ccc(Cl)cc1 (stereo not shown) [Example 6] | 46 | 94 | 83 | – | 750 |
| Cc1ccc(C(=O)c2cccc(OC(C)C(=O)O)c2C)cc1 (stereo not shown) [Example 10] | 32 | 92 | – | – | 600 |
| CCOC(=O)C(C)Oc1cccc(C(=O)c2ccc(Cl)cc2)c1C (stereo not shown) [Ethyl ester of Example 6] | 62 | 77 | 73 | – | 1500 |
| Cc1ccc(C(=O)c2cccc(OC(C)C(=O)O)c2)cc1 (stereo not shown) [Lysine salt of Ex. 8] | 30 | 87 | 36 | 2000 | – |
| Cc1ccc(C(=O)c2cccc(OC(C)C(=O)O)c2)c(C)c1 (stereo not shown) [Example 11] | 41 | 97 | 31 | – | 2000 |
